Series [1] relates to HIV-1 (IIIB). The series is described as follows: Antiviral assay in MT-4 cells (HIV MT-4 antiviral assay). It counts as cell-based. As to conditions: HIV-1 (IIIB) in MT-4 cells, 5 days incubation. As for the experimental part:
Compounds were tested in a high-throughput 384-well assay format for their ability to inhibit the replication of HIV-1 (IIIB) in MT-4 cells. Compounds were serially diluted (1:3) in DMSO on 384-well polypropylene plates and further diluted 200-fold into complete RPMI media (10% FBS, 1% P/S) using the Biotek Micro Flow and Labcyte ECHO acoustic dispenser. Each plate contained up to 8 test compounds, with negative (No Drug Control) and 5 μM AZT positive controls. MT-4 cells were pre-infected with 10 μL of either RPMI (mock-infected) or a fresh 1:250 dilution of HIV-1 IIIB concentrated virus stock. Infected and uninfected MT-4 cells were further diluted in complete RPMI media and added to each plate using a Micro Flow dispenser. After 5 days incubation in a humidified and temperature controlled incubator (37° C.), Cell Titer Glo (Promega) was added to the assay plates and chemiluminescence read using an Envision plate-reader.

Series [2] in a line: Cytotoxicity assay in MT-4 cells. It counts as cell-based, human. As to conditions: human, uninfected MT-4 cells, 5 days incubation; read-out: CC50. As for the experimental part:
Each plate contained up to 8 test compounds, with negative (No Drug Control) and 5 μM AZT positive controls. MT-4 cells were pre-infected with 10 μL of either RPMI (mock-infected) or a fresh 1:250 dilution of HIV-1 IIIB concentrated virus stock. Infected and uninfected MT-4 cells were further diluted in complete RPMI media and added to each plate using a Micro Flow dispenser. After 5 days incubation in a humidified and temperature controlled incubator (37° C.), Cell Titer Glo (Promega) was added to the assay plates and chemiluminescence read using an Envision plate-reader. […] Assays were performed as above except uninfected MT-4 cells were added to each well containing test compound. In addition, 10 μM puromycin was added to the last column of each assay plate to assess a base level of cytotoxicity.

In series [3] the test system is pLai RLuc reporter virus. The series is described as follows: microbe, parasite or virus in culture. It counts as cell-based, HIV. As to conditions: Human immunodeficiency virus 1, 72 h. Here is the method: To quantify the amount of protein binding to human serum, compounds were serially diluted (1:3) in DMSO and acoustically transferred onto 384-well assay plates via a Labcyte ECHO robot. Each plate contained up to 8 test compounds, including negative and positive controls, (DMSO, 5 μM AZT respectively). Assay plates were prepared in duplicate, and tested in either CCM (cell culture media) or HS/CCM (human serum/cell culture media). MT-4 cells were first pre-infected with pLai RLuc reporter virus for 2 h at 37° C., then further diluted in either CCM (RPMI media, 10% FBS, 1% P/S) or HS/CCM (RPMI media, 10% FBS, 50% HS, 1% P/S), and subsequently added to each plate using a Biotek Micro Flow dispenser. After a 72-h incubation in a humidified and temperature controlled incubator (37° C.), Renilla Glo (Promega) was added to all assay plates and chemiluminescence read using an Envision plate-reader. […] To determine the amount of protein binding, EC50 fold shifts (or EC50 shifts) were calculated by dividing EC50 (HS/CCM)/EC50 (CCM).

The mark [4] stands for this setting: Human immunodeficiency virus 1, IIIB, MT4, 120 h, read-out: EC50.

Where two headings read alike, the source gives them in different places. Where only a bound is given, the exact number is not on record here.

Consider `O=C(NCc1c(F)cc(F)cc1F)c1cn2c(c(O)c1=O)C(=O)N1CCCC2CC1` (racemic) [Example 24, 11-hydroxy-1,10-dioxo-N-(2,4,6-trifluorobenzyl)-1,3,4,5,6,10-hexahydro-2,6-ethanopyrido[1,2-a][1,4]diazocine-9-carboxamide], for which the EC50 in series [1] (setting [4]) was 27.3 nM. Moreover, in series [2], the CC50 (as a rule, the concentration that lowers cell viability or growth by half) at 5 days amounted to 13800 nM.

With `O=C(NCc1ccc(F)cc1F)c1cn2c(c(O)c1=O)C(=O)N1CCCOCC2C1` (racemic) [rac-1, N-(2,4-Difluorobenzyl)-13-hydroxy-1,12-dioxo-1,4,5,7,8,12-hexahydro-3H-2,8-methanopyrido[1,2-d][1,4,7]oxadiazecine-11-carboxamide], the EC50 in series [1] (setting [4]) was found to be 3.9 nM. Also, the CC50 at 5 days in series [2] was greater than 47900 nM.

For `CC1(F)CCCN2CC1n1cc(C(=O)NCc3ccc(F)cc3F)c(=O)c(O)c1C2=O` (single isomer, unassigned) [Example 17-1a, N-(2,4-difluorobenzyl)-6-fluoro-12-hydroxy-6-methyl-1,11-dioxo-1,4,5,6,7,11-hexahydro-3H-2,7-methanopyrido[1,2-a][1,4]diazonine-10-carboxamide], in series [1] (setting [4]), the EC50 stood at 1.5 nM. Moreover, the CC50 at 5 days in series [2] worked out at 12900 nM.

As to `O=C(NCc1c(F)cc(F)cc1F)c1cn2c(c(O)c1=O)C(=O)N1CCCC2CC1` (single isomer, unassigned) [Example 24-1, 11-hydroxy-1,10-dioxo-N-(2,4,6-trifluorobenzyl)-1,3,4,5,6,10-hexahydro-2,6-ethanopyrido[1,2-a][1,4]diazocine-9-carboxamide], the EC50 in series [1] (setting [4]) amounted to 10.3 nM. Moreover, the CC50 at 5 days in series [2] is 13600 nM.

Consider `O=C(NCc1ccc(F)cc1F)c1cn2c(c(O)c1=O)C(=O)N1C[C@H]2CCc2ccccc21` (single isomer, unassigned) [Example 37-1], for which the EC50 in series [1] (setting [4]) is 21.4 nM. Besides, the CC50 at 5 days in series [2] was 10500 nM.

Regarding `O=C(NCc1ccc(F)cc1F)c1cn2c(c(O)c1=O)C(=O)N1C[C@@H]2CCc2ccccc21` (single isomer, unassigned) [Example 37-2], the EC50 in series [1] (setting [4]) was 1.2 nM. Further, the CC50 at 5 days in series [2] was determined as 12900 nM.

The molecule `O=C(NCc1ccc(F)cc1F)c1cn2c(c(O)c1=O)C(=O)N1CC2CCc2cc(F)ccc21` (single isomer, unassigned) [Example 55-1] registered an EC50 in series [1] greater than 89.4 nM. Also, in series [2], the CC50 at 5 days was determined as 13000 nM.

Consider `O=C(NCc1c(F)cc(F)cc1F)c1cn2c(c(O)c1=O)C(=O)N1CCc3ccccc3[C@@H]2C1` (single isomer, unassigned) [Example 63-2], for which the EC50 in series [1] (setting [4]) is 8.14 nM. Further, the CC50 at 5 days in series [2] was 14300 nM.

In the case of `O=C(NCc1ccc(F)cc1F)c1cn2c(c(O)c1=O)C(=O)N1CCc3cc(F)c(F)cc3[C@@H]2C1` (single isomer, unassigned) [Example 111-2], the EC50 in series [1] (setting [4]) turned out to be 56.9 nM. Besides, the CC50 at 5 days in series [2] amounted to 9940 nM.

As for `O=C(NCc1c(F)cc(F)cc1F)c1cn2c(c(O)c1=O)C(=O)N1Cc3ccc(Cl)cc3C[C@@H]2C1` (single isomer, unassigned) [Example 127-2], the EC50 in series [1] (setting [4]) was 3.93 nM. Also, the CC50 at 5 days in series [2] came to 13700 nM.

As to `O=C(NCc1ccc(F)cc1F)c1cn2c(c(O)c1=O)C(=O)N1Cc3ccc(Cl)cc3C[C@@H]2C1` (single isomer, unassigned) [Example 128-2], in series [1] (setting [4]), the EC50 amounted to 7.37 nM. For the same molecule, in series [2], the CC50 at 5 days is greater than 50000 nM.

Regarding `Cc1noc2c1CN1C[C@H](C2)n2cc(C(=O)NCc3c(F)cc(F)cc3F)c(=O)c(O)c2C1=O` (single isomer, unassigned) [Example 135-1], the EC50 in series [1] (setting [4]) was found to be 3.36 nM. Moreover, the CC50 at 5 days in series [2] is greater than 50000 nM.

Turning to `Cc1noc2c1C[C@H]1CN(C2)C(=O)c2c(O)c(=O)c(C(=O)NCc3c(F)cc(F)cc3F)cn21` (single isomer, unassigned) [Example 135-2], in series [1] (setting [4]), the EC50 came out at 4.77 nM. Further, in series [2], the CC50 at 5 days is greater than 50000 nM.

`O=C(NCc1c(F)cc(F)cc1F)c1cn2c(c(O)c1=O)C(=O)N1CC2CCc2sccc21` (stereo in doubt) [Example 104-2, (11S)-6-hydroxy-5,7-dioxo-N-(2,4,6-trifluorobenzyl)-5,7,12,13-tetrahydro-11H-4,11-methanopyrido[1,2-a]thieno[3,2-e][1,4]diazonine-8-carboxamide]: the EC50 in series [1] (setting [4]) is 35.3 nM. Further, the CC50 at 5 days in series [2] amounted to 14000 nM.

`O=C(NCc1ccc(F)cc1F)c1cn2c(c(O)c1=O)C(=O)N1C[C@H]2CCC(F)(F)C1` [Example 4-1, (7R)—N-(2,4-difluorobenzyl)-4,4-difluoro-12-hydroxy-1,11-dioxo-1,4,5,6,7,11-hexahydro-3H-2,7-methanopyrido[1,2-a][1,4]diazonine-10-carboxamide]: in series [1] (setting [4]), the EC50 was 6.4 nM. The CC50 at 5 days in series [2] came to 23300 nM.

Consider `O=C(NCc1c(F)cc(F)cc1F)c1cn2c(c(O)c1=O)C(=O)N1CCCC(O)C2C1` (stereo not shown) [Example 11, 6,12-dihydroxy-1,11-dioxo-N-(2,4,6-trifluorobenzyl)-1,4,5,6,7,11-hexahydro-3H-2,7-methanopyrido[1,2-a][1,4]diazonine-10-carboxamide], for which the EC50 in series [1] (setting [4]) is 7.2 nM. The CC50 at 5 days in series [2] is greater than 50000 nM.

In the case of `O=C(NCc1ccc(F)cc1F)c1cn2c(c(O)c1=O)C(=O)N1CCCC(O)C2C1` (stereo not shown) [Example 12, N-(2,4-difluorobenzyl)-6,12-dihydroxy-1,11-dioxo-1,4,5,6,7,11-hexahydro-3H-2,7-methanopyrido[1,2-a][1,4]diazonine-10-carboxamide], the EC50 in series [1] (setting [4]) was 4.1 nM. Moreover, the CC50 at 5 days in series [2] was greater than 50000 nM.

Take `O=C(NCc1ccc(F)cc1F)c1cn2c(c(O)c1=O)C(=O)N1CCCC(F)C2C1` (stereo not shown) [Example 13, N-(2,4-difluorobenzyl)-6-fluoro-12-hydroxy-1,11-dioxo-1,4,5,6,7,11-hexahydro-3H-2,7-methanopyrido[1,2-a][1,4]diazonine-10-carboxamide]: the EC50 in series [1] (setting [4]) came to 1.3 nM. In addition, the CC50 at 5 days in series [2] turned out to be 17200 nM.

On to `CC12CCCCN(C1)C(=O)c1c(O)c(=O)c(C(=O)NCc3c(F)cc(F)cc3F)cn12` (stereo not shown) [Example 18, 12-hydroxy-7-methyl-1,11-dioxo-N-(2,4,6-trifluorobenzyl)-1,4,5,6,7,11-hexahydro-3H-2,7-methanopyrido[1,2-a][1,4]diazonine-10-carboxamide], for which the EC50 in series [1] (setting [4]) was 1.4 nM. In addition, the CC50 at 5 days in series [2] came to 29400 nM.

As to `O=C(NCc1ccc(F)cc1F)c1cn2c(c(O)c1=O)C(=O)N1CCCC2CC1` (stereo not shown) [Example 23, N-(2,4-difluorobenzyl)-11-hydroxy-1,10-dioxo-1,3,4,5,6,10-hexahydro-2,6-ethanopyrido[1,2-a][1,4]diazocine-9-carboxamide], in series [1] (setting [4]), the EC50 is 59.9 nM. For the same molecule, the CC50 at 5 days in series [2] is 12000 nM.

Consider `O=C(NCc1ccc(F)cc1F)c1cn2c(c(O)c1=O)C(=O)N1C(=O)C2CCc2ccccc21` (stereo not shown) [Example 27, N-(2,4-difluorobenzyl)-7-hydroxy-6,8,15-trioxo-6,8,13,14-tetrahydro-12H-5,12-methanobenzo[e]pyrido[1,2-a][1,4]diazonine-9-carboxamide], for which, in series [1] (setting [4]), the EC50 was greater than 100 nM. Further, the CC50 at 5 days in series [2] stood at 10900 nM.

For the molecule `O=C(NCc1ccc(F)cc1F)c1cn2c(c(O)c1=O)C(=O)N1CCOC[C@@H]2C1` [Example 28, (7S)—N-(2,4-difluorobenzyl)-12-hydroxy-1,11-dioxo-1,3,4,6,7,11-hexahydro-2,7-methanopyrido[1,2-d][1,4,7]oxadiazonine-10-carboxamide], in series [1] (setting [4]), the EC50 is 13.5 nM. Also, the CC50 at 5 days in series [2] was greater than 50000 nM.

In the case of `O=C(NCc1c(F)cc(F)cc1F)c1cn2c(c(O)c1=O)C(=O)N1CC=C(F)C[C@H]2C1` [Example 133, (7S)-5-fluoro-12-hydroxy-1,11-dioxo-N-(2,4,6-trifluorobenzyl)-1,6,7,11-tetrahydro-3H-2,7-methanopyrido[1,2-a][1,4]diazonine-10-carboxamide], the EC50 in series [3] (read-out: Antiviral Serum Shift RLuc 50% HS, HS/CCM (RPMI media, 10% FBS, 50% HS, 1% P/S), 72-h incubation) was 1.66 nM; in series [3] (read-out: Antiviral Serum Shift RLuc CCM, CCM (RPMI media, 10% FBS, 1% P/S), 72-h incubation), 0.533 nM.

The record behind these values is US12227520B2 (priority 2019, dated 2025).
